Measurements as given in ChEMBL document CHEMBL1201862, “PubChem BioAssay data set” (2004).
Values belong to the compound of their own block, whether it stands above or below them. Activity calls are given as the source filed them.

How the values were obtained:
[1] = Trypanosoma cruzi growth suppression in host cells – NIH3T3 host cells, beta-gal luminescence, confirmation (AID 2044); format: functional, cell-based;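 note: intracellular parasites grown in NIH/3T3 mouse fibroblasts as host cells; luminescent beta-galactosidase reporter signal from transgenic T. cruzi replicating inside host cells; inhibitors lower the luminescence signal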
[2] = NIH3T3 cell viability loss – ATP luminescence, mouse fibroblasts, counter-screen, dose response (AID 2010); format: functional, cell-based;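 note: cells exposed to compound for about 90 hours before reading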
Beta-galactosidase = Beta-galactosidase (Escherichia coli, UniProt Q8VNN2); experiment: Dose response counterscreen for EBI2 assay utilizing the enzyme, b-galactosidase.; format: functional
Sequence of Beta-galactosidase (Q8VNN2 whole entry, the tested form may be a part): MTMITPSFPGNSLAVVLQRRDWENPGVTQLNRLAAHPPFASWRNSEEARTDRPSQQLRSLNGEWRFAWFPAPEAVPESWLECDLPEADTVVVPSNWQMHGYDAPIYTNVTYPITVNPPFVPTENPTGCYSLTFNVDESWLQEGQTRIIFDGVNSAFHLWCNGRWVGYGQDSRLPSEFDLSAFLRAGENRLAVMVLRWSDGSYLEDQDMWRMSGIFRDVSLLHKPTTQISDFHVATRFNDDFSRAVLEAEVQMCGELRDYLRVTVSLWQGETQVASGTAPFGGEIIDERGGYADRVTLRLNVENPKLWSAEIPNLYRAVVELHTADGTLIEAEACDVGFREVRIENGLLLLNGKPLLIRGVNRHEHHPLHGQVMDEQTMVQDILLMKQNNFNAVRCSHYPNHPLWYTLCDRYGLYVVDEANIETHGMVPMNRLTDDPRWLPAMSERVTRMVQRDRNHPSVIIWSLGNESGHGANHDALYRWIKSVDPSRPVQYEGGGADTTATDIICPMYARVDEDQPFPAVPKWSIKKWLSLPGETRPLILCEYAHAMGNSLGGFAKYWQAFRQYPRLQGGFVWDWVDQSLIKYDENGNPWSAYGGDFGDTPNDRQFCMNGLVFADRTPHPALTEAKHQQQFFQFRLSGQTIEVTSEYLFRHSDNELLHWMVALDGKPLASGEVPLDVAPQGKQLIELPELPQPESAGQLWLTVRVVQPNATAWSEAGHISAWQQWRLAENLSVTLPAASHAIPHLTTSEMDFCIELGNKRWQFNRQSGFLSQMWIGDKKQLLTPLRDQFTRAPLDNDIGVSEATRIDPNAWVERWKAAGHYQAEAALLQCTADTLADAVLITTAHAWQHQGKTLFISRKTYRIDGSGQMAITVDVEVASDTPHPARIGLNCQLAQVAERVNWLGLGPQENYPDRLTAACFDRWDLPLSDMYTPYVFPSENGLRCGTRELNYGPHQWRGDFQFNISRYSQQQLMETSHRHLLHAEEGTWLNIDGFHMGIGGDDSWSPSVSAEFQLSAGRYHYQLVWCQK

[3] = target: T1, Carboxy-terminal domain RNA polymerase II polypeptide A small phosphatase 1 (Homo sapiens, UniProt Q9GZU7); experiment: CTDSP1 inhibitors, concentration-response, biochemical, absorbance readout, ultra-high-throughput screen actives (AID 540297); format: functional
T1 sequence (Q9GZU7 whole entry): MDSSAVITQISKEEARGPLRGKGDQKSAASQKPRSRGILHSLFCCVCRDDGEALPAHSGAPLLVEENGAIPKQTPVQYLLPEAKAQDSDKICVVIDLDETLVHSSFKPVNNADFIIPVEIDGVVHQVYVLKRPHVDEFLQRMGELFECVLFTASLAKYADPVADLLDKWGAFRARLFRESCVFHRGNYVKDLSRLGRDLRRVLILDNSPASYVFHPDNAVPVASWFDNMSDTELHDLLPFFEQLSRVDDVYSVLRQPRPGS

[4] = target: Tyrosine-protein phosphatase non-receptor type 11 (Homo sapiens, UniProt Q06124); experiment: PTPN11 enzyme inhibitors – biochemical, selectivity assay for STEP inhibitor project, dose response (AID 602367); format: functional; settings: read-out: IC50_Mean
[5] = target: Tyrosine-protein phosphatase non-receptor type 5 (Homo sapiens, UniProt P54829); experiment: PTPN5 enzyme inhibition – biochemical, fluorescence intensity, uHTS hits, confirmation (AID 602372); format: functional; settings: read-out: IC50_Mean
Sequence of Tyrosine-protein phosphatase non-receptor type 5 (P54829 whole entry): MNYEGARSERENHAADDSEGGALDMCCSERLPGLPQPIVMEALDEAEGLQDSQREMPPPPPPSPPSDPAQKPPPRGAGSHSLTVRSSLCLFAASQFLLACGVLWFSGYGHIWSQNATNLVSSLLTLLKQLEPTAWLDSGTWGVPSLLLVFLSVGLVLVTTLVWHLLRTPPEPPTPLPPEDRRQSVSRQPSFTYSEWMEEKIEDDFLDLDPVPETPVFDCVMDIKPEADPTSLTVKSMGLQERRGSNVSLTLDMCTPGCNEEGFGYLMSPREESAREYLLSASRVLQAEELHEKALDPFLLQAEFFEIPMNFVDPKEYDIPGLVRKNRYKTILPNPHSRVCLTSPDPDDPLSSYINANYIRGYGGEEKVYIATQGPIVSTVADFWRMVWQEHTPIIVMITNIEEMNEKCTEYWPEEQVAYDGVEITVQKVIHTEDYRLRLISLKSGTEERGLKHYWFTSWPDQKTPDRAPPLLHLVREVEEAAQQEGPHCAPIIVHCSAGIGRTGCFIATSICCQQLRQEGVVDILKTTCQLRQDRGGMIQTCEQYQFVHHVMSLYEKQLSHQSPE

[6] = target: Dual specificity protein phosphatase 3 (Homo sapiens, UniProt P51452); experiment: VHR phosphatase inhibition, dose response, selectivity assay for STEP inhibitor project, biochemical (AID 602374); format: functional; settings: read-out: IC50_Mean
Sequence of Dual specificity protein phosphatase 3 (P51452 whole entry): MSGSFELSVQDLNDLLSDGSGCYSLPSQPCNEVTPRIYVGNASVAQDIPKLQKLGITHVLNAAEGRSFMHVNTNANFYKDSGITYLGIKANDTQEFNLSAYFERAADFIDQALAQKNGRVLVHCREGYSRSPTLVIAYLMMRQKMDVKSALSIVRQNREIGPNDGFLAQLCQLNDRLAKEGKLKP

[7] = target: T2, Small ubiquitin-related modifier 1 (Homo sapiens, UniProt P63165); experiment: SUMO1 protein interaction blockers, potency – biochemical, fluorescence polarization, uHTS hits, dose response (AID 624382); format: functional; settings: read-out: IC50_Mean
T2 sequence (P63165 whole entry): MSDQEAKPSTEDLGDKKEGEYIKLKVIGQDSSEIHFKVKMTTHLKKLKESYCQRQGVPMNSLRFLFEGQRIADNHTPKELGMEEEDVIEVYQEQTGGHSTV

[8] = target: T2, Small ubiquitin-related modifier 1; experiment: SUMO1 protein-protein binding blockers, potency – biochemical, FRET, dose response (AID 624383); format: functional; settings: read-out: IC50_Mean
[9] = target: Arf-GAP with SH3 domain, ANK repeat and PH domain-containing protein 1 (Homo sapiens, UniProt Q9ULH1); format: functional;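 note: biochemical fluorescence polarization dose–response screen measuring inhibition of ASAP1; ASAP1 GAP domain stimulating GTP hydrolysis by truncated human ARF1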
Sequence of Arf-GAP with SH3 domain, ANK repeat and PH domain-containing protein 1 (Q9ULH1 whole entry, the tested form may be a part): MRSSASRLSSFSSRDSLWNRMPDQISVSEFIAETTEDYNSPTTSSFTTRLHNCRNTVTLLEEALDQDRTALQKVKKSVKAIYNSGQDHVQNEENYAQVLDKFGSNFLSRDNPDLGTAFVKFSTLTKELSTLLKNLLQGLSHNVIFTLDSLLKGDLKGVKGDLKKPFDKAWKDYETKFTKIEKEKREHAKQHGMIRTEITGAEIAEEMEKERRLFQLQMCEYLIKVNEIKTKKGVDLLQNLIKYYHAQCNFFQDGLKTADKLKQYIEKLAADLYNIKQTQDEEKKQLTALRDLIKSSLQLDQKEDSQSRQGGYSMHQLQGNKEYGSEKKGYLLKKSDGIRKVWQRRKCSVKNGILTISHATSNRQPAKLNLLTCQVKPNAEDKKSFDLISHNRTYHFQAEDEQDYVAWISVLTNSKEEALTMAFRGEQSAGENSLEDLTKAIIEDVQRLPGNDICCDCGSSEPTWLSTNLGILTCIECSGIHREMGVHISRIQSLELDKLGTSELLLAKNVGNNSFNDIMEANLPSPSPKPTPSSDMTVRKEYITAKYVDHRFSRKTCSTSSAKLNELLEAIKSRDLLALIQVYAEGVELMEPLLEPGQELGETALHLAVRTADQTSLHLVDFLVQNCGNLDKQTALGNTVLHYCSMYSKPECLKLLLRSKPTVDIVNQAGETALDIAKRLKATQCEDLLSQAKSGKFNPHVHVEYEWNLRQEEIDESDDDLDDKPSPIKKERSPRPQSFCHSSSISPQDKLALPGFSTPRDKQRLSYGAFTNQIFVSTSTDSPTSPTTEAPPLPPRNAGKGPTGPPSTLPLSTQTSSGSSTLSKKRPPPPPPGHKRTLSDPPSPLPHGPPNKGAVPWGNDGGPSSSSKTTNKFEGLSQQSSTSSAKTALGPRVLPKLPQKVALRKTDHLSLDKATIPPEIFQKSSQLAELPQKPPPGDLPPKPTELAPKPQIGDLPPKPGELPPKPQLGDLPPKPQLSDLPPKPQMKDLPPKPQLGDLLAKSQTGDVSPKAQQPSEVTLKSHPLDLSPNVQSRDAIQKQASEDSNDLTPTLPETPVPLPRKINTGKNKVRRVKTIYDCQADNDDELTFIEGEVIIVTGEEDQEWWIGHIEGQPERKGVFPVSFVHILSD

Mu-type opioid receptor = Mu-type opioid receptor (Homo sapiens, UniProt P35372); format: functional, cell-based;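 note: U2OS cells with beta-arrestin recruitment to OPRM1 by beta-gal complementation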
Sequence of Mu-type opioid receptor (P35372 whole entry): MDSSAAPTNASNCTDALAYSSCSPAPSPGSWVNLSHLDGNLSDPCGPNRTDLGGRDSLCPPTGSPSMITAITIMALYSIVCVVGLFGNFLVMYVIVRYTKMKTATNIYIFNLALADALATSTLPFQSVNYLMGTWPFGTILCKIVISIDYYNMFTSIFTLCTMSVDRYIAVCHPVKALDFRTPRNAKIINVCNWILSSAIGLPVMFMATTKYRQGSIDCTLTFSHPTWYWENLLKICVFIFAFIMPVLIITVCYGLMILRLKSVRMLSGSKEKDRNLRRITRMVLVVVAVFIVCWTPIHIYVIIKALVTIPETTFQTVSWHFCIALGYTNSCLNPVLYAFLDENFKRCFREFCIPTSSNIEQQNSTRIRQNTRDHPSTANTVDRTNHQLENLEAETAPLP

[10] = target: 5-hydroxytryptamine receptor 2A (Mus musculus, UniProt P35363); format: functional, cell-based;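 note: CHO-K1 cells with tagged receptor and beta-arrestin; agonist potency measured as compound-induced activation of the receptor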
Sequence of 5-hydroxytryptamine receptor 2A (P35363 whole entry): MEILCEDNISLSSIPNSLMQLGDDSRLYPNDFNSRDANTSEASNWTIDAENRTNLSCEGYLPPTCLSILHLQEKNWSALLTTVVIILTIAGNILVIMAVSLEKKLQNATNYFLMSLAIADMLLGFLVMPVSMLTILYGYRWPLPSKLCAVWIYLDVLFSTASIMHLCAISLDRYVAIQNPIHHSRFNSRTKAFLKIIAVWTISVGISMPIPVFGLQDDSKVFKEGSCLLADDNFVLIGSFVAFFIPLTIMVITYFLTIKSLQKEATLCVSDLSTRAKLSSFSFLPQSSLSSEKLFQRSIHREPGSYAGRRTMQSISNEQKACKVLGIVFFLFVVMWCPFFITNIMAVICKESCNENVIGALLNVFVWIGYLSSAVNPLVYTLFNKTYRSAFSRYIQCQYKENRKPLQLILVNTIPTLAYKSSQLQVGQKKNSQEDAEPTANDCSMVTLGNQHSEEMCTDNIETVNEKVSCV

[11] = general mammalian cell viability loss – inhibitor set, cherry-pick, set 2, cytotoxicity control for miR-122 modulator project, dose response (AID 720697); format: functional, cell-based
[12] = target: Histone-lysine N-methyltransferase NSD2 (Homo sapiens, UniProt O96028); format: biochemical
[13] = target: DNA repair protein RAD52 homolog (Homo sapiens, UniProt P43351); format: functional, biochemical
Sequence of DNA repair protein RAD52 homolog (P43351 whole entry): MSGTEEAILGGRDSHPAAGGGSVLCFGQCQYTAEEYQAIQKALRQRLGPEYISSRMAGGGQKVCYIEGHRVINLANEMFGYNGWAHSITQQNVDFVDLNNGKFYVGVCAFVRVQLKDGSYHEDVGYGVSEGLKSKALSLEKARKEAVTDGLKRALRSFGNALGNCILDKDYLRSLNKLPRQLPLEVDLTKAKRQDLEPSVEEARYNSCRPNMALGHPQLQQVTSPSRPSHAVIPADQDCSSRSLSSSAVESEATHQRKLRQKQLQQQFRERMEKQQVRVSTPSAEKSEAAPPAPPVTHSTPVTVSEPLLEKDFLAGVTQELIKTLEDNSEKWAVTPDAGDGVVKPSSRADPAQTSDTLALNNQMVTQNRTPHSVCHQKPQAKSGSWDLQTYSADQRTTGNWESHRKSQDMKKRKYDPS

[14] = general mammalian cell viability loss – activator set, cherry-pick, cytotoxicity control for miR-122 modulator project, dose response (AID 720690); format: functional, cell-based;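 note: HEK293T human cells scored for general mammalian cytotoxicity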
[15] = target: FAD-linked sulfhydryl oxidase ALR (Homo sapiens, UniProt P55789); experiment: ALR-catalysed DTT oxidation blockers – biochemical, H2O2 detection, luminescence, cherry-pick, dose response (AID 493248)
Sequence of FAD-linked sulfhydryl oxidase ALR (P55789 whole entry): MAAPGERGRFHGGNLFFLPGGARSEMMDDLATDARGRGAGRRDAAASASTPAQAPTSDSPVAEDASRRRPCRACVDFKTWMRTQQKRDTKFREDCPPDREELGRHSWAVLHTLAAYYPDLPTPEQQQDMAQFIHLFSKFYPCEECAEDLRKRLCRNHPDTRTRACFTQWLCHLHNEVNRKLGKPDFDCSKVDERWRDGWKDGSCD

Paired box protein Pax-8 = Paired box protein Pax-8 (Homo sapiens, UniProt Q06710); experiment: PAX8 transcriptional activity inhibition in RMG-I – RMG-I cells, luciferase, cherry-pick, dose response (AID 687027); format: functional, cell-based;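 note: luciferase reporter driven by Pax8 target thyroperoxidase promoter measured by SteadyGlo luminescence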
Sequence of Paired box protein Pax-8 (Q06710 whole entry): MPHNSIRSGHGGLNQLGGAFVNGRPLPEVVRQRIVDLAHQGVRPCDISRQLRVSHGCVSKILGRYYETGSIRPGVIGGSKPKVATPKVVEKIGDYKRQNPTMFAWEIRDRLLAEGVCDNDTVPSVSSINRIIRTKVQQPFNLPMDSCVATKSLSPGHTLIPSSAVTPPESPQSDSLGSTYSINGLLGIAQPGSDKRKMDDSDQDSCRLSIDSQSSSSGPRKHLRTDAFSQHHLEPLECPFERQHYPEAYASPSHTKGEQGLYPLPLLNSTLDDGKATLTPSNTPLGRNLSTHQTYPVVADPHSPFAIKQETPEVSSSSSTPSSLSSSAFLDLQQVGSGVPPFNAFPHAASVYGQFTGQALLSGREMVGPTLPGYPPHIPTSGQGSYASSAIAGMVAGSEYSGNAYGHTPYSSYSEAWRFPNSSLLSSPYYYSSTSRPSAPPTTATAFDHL

[16] = OVCAR-3 cell viability loss – plate reader, dry powder samples, PAX8 inhibitor project, dose response (AID 743044); format: functional, cell-based
[17] = IGROV1 cell killing – plate reader, dry powder samples, PAX8 inhibitor project, dose response (AID 743043); format: functional, cell-based; settings: IGROV-1
H9c2 = experiment: cells; format: functional, cell-based; settings: Rattus norvegicus, H9c2, Myocardium;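 note: confirmatory concentration-response retest of ultra-high-throughput screening hits for modulation of myocardial damage; cell death induced by hydrogen peroxide oxidative stress; compound pretreatment for 60 min then peroxide exposure for 2 h; potency is for protecting the cells against peroxide damage rather than for killing them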
cells = format: functional, cell-based
[18] = target: T3, Nuclear receptor subfamily 0 group B member 1 (Homo sapiens, UniProt P51843); format: functional, cell-based;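 note: HEK293T cells transfected with SF-1 and DAX-1 plus StAR promoter luciferase reporter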
T3 sequence (P51843 whole entry): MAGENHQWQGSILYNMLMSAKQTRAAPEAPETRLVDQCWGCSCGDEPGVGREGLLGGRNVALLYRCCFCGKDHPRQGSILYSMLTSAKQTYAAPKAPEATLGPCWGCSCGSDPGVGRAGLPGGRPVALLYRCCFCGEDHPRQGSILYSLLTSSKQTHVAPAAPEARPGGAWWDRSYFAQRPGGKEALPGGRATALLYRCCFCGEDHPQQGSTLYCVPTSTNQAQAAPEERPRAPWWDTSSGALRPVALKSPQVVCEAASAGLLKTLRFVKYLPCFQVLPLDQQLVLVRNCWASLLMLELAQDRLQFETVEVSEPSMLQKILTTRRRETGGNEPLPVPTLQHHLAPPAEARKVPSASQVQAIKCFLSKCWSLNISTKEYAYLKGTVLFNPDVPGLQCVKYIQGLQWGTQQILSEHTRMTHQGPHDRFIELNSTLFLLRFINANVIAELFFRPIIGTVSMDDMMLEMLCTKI

[19] = blockers of HIV-1 envelope-mediated cell-cell fusion – cherry-pick, dose response (AID 652057); format: functional, cell-based
[20] = viability loss in CEM21 cells – cell-based, CellTiter-Glo luminescence, cherry-picked, cytotoxicity control for viral fusion inhibitor project, dose response (AID 652042); format: functional;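 note: potency for signal decrease meaning cytotoxicity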
[21] = blockers of HIV-1 ZM109 envelope-driven cell-cell fusion – HeLa effector, CEM target cells, luciferase, cherry-pick, dose response (AID 652058); format: functional, cell-based;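 note: luciferase signal from HIV-1 Env mediated cell-cell fusion of effector and target cells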
[22] = off-target signal loss in HeLa-CEM21 co-culture – HeLa F-luc CTL cells, cherry-picked, counter-screen for HIV-1 Env fusion inhibitor project, dose response (AID 652040); format: functional, cell-based;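 note: potency for signal decrease marking cytotoxic or nonspecific inhibition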
[23] = HIV-1 AD8 envelope cell-cell fusion blockers – cherry-pick, dose response (AID 652062); format: functional, cell-based;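 note: luciferase signal from cell-cell fusion driven by HIV-1 clade B AD8 Env; potency is for inhibitors of fusion seen as a drop in luminescence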
[24] = rise of 2N DNA cells, HeLa – IC50, dose response (AID 1117349); format: functional, cell-based
[25] = CellTiter-Glo luminescence survival assay, SW480 colon tumor line, concentration-response curve, half-maximal inhibitory concentration (AID 1117338); format: functional
[26] = RKO cell viability reduction, dose response, CellTiter-Glo luminescence (AID 1117322); format: functional
[27] = cytotoxicity toward HCT116 cells – cell-based, CellTiter-Glo luminescence, IC50, dose response (AID 1117332); format: functional; settings: HCT-116
[28] = SNU-C1 cell viability reduction, dose response, CellTiter-Glo luminescence (AID 1117323); format: functional, cell-based
[29] = cytotoxicity toward Colo320 cells – cell-based, CellTiter-Glo luminescence, IC50, dose response (AID 1117334); format: functional; settings: COLO 320
[30] = rise of 4N DNA cells, HeLa – IC50, dose response (AID 1117351); format: functional, cell-based
[31] = cytotoxicity toward HT-29 cells – cell-based, CellTiter-Glo luminescence, IC50, dose response (AID 1117330); format: functional
[32] = target: T4, Corticotropin-releasing factor receptor 2/Corticotropin-releasing factor-binding protein (Homo sapiens, UniProt P24387+Q13324); experiment: Dose Response confirmation of uHTS hits for small molecule antagonists of the CRF-binding protein and CRF-R2 receptor complex.; format: functional; settings: read-out: IC50_Mean
T4 sequence (Q13324 whole entry): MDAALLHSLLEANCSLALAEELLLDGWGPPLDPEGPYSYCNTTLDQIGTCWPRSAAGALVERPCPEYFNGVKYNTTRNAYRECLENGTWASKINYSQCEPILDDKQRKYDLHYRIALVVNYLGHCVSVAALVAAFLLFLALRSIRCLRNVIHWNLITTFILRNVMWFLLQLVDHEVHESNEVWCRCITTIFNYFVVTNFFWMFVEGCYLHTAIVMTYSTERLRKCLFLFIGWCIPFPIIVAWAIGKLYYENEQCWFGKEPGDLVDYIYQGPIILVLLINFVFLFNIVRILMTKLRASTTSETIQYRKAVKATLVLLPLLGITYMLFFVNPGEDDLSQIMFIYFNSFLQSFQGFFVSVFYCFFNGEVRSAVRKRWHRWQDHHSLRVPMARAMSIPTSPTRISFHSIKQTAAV
T4 sequence (P24387 whole entry): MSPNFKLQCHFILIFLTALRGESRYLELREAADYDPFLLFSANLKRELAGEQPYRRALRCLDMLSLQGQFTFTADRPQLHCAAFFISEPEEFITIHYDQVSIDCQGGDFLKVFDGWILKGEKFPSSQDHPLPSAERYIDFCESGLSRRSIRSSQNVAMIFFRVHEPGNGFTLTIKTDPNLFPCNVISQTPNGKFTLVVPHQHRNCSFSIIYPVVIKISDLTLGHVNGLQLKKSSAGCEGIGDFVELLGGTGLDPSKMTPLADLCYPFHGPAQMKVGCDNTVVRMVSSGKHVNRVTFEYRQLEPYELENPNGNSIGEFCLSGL

[33] = target: T4, Corticotropin-releasing factor receptor 2/Corticotropin-releasing factor-binding protein; experiment: activators of CRF receptor 2 with binding protein – uHTS hits, confirmation (AID 602473); format: functional; settings: read-out: EC50_Mean
[34] = target: T5, Low molecular weight phosphotyrosine protein phosphatase (Homo sapiens, UniProt P24666); format: functional; settings: read-out: IC50_Mean
T5 sequence (P24666 whole entry): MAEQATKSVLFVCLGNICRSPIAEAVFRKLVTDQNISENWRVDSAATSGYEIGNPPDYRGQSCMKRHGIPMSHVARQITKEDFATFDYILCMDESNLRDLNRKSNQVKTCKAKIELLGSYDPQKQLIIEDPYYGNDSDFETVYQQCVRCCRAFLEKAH

[35] = target: T5, Low molecular weight phosphotyrosine protein phosphatase; format: functional; settings: read-out: IC50_Mean; remark: listed apart in the source

SMILES: COc1cccc(-c2cc(C(=O)N3CCN(C(c4ccccc4)c4ccccc4)CC3)no2)c1
EC50 [1]: 1.61 µM (active)
EC50 [2]: 25.2 µM (active)
IC50 (Beta-galactosidase): > 80 µM (inactive)

SMILES: O=C(N/N=C/c1ccc(Cl)c([N+](=O)[O-])c1)c1ccc2c(c1)OCCO2
IC50 [3]: 4.44 µM (active)
IC50 [4]: 1.93 µM (active)
IC50 [5]: 7.3 µM (active)
IC50 [6]: 2.29 µM (active)
IC50 [7]: > 66.6 µM (inactive)
IC50 [8]: 9.57 µM (active)
IC50 [9]: 10.9 µM (inactive)

EC50 (Mu-type opioid receptor): 92.5 µM (inactive)
EC50 [10]: 76.1 µM (inactive)
SMILES: COc1ccc(CN2CCN(C(=O)c3cccs3)CC2)cc1

SMILES: C[C@@H]1CN([C@@H](C)CO)C(=O)c2cc(NC(=O)NC3CCCCC3)ccc2O[C@@H]1CN(C)C(=O)Nc1ccc2c(c1)OCO2
AC50 [11]: 9.33 µM (active)

AC50 [12]: > 20 µM (inactive)
SMILES: Nc1ccc2nn(-c3cc([N+](=O)[O-])ccc3O)nc2c1

AC50 [13]: 21.7 µM (active)
SMILES: CN(C)CCCNc1ncnc2oc(-c3ccccc3)c(-c3ccccc3)c12

IC50 [9]: 50.8 µM (inactive)
SMILES: COc1ccc(C(=O)Nc2nc3cc4c(cc3s2)OCO4)c(OC)c1

SMILES: C[C@H]1CN([C@@H](C)CO)S(=O)(=O)c2ccc(-c3ccccc3F)cc2O[C@@H]1CN(C)Cc1cccnc1
AC50 [14]: 23 µM (active)

AC50 [15]: > 100 µM (inactive)
EC50 (Mu-type opioid receptor): 92.5 µM (inactive)
EC50 [10]: 1.02 µM (active)
SMILES: COc1cc(Br)cc(CN2CCN(c3ncccn3)CC2)c1O

SMILES: C[C@H]1CCCCO[C@H](CN(C)Cc2ccc(C(F)(F)F)cc2)[C@@H](C)CN([C@@H](C)CO)C(=O)c2cc(NC(=O)c3ccccc3)ccc2O1
AC50 (Paired box protein Pax-8): 8.95 µM (active)
AC50 [16]: 21.2 µM (active)
AC50 [17]: 36.4 µM (active)

SMILES: COc1cc(/C=C(\C#N)C(=O)Nc2ccccc2F)ccc1OCCN1CCOCC1
IC50 (H9c2): 8.88 µM (active)
IC50 (cells): > 67.5 µM (inactive)
IC50 [18]: > 67.5 µM (inactive)

SMILES: COC(=O)[C@]12C[C@H](CC(=O)NCC3CCCCC3)C(=O)N(CCC3=CCCCC3)C1=C[C@H](C(C)(C)C)O[C@@H]2C
AC50 [19]: 2.45 µM (active)
AC50 [20]: 21.5 µM (active)
AC50 [21]: 3.66 µM (active)
AC50 [22]: 3.68 µM (active)
AC50 [23]: 3.6 µM (active)

SMILES: COC(=O)Nc1nc2ccc(C(=O)C3CC3)cc2[nH]1 [CYCLOBENDAZOLE]
IC50 (cells): > 67.5 µM (inactive)
IC50 [18]: > 67.5 µM (inactive)
IC50 [24]: 0.417 µM (active)
IC50 [25]: > 20 µM (inactive)
IC50 [26]: 0.162 µM (active)
IC50 [27]: 0.174 µM (active)
IC50 [28]: > 20 µM (inactive)
IC50 [29]: 0.156 µM (active)
IC50 [30]: 0.416 µM (active)
IC50 [31]: 1.68 µM (active)

IC50 [32]: > 47.1 µM (inactive)
IC50 [4]: 1.98 µM (active)
IC50 [5]: 13.3 µM (active)
EC50 [33]: > 53 µM (inactive)
IC50 [6]: 1.77 µM (active)
IC50 [34]: 16.1 µM (active)
IC50 [35]: 7.06 µM (active)
SMILES: O=[N+]([O-])c1ccc(O)c(Nc2ncnc3ccccc23)c1

IC50 (Beta-galactosidase): > 80 µM (inactive)
SMILES: COc1ccc(OCC(=O)N2CCN(S(=O)(=O)c3ccc(Cl)s3)CC2)cc1
